From US20050192228A1, “Tripeptide derivatives for the treatment of neurodegenerative diseases” (priority 2001, published 2005)

Assays:
Format in all cases: in vivo, Male Wistar rats
hippocampal neurons = test: Gp120 model: neuronal count in the CA III layers of the hippocampus; conditions: percentage of the control group, treatment 10 mg/kg/day for 5 days
Protocol: After the last learning session, the rats were sacrificed by means of decapitation, and the brain was isolated and frozen to −80° C. with liquid nitrogen. Cuts of a thickness of 50 μm were obtained in a “cryo-cut”, and the neurons are counted in the CA III layers of the hippocampus under a microscope. The results are expressed as percentage of the control group.

[1] = tested on: glucocorticoid receptors of the hippocampus; test: Dexamethasone model: determination of the corticoide receptors in the hippocampus (3H-dexamethasone binding); conditions: for Type I receptors in Femtomol/mg protein: dexamethasone 50 mg/kg/day, hippocampi removed after the last learning session; for effect on number of receptors of hippocampus neurons (in words): dexamethasone model
Protocol: (§1) 40 rats were kept and operated as described above. Then, they were divided into the following groups: • one group of 10 rats which received 5 μl/day of physiological serum • one group of 30 rats which received 50 mg/kg/day dexamethasone, dissolved in physiological serum.
After the last learning session at 10.00 a.m., the rats were sacrificed by means of decapitation, and the hippocampi were quickly removed and put on a plate cooled to 0° C. The number of glucocorticoid receptors was determined by a binding method using a labeled corticoid and a specific inhibitor to the binding of the corticoid to the receptor (here a total agonist). The protein content was measured by Lowry's method.
The hippocampi of each rat were homogenized in 2 ml of sodium EDTA Glycerol molybdate buffer. The homogenate was centrifugated at 100.000 g for 60 minutes. An aliquot of the supernatant was diluted in distilled water, and the protein content was measured by Lowry's method.
The rest of the supernatant was divided into three parts of 0.2 ml each. Increasing concentrations (25, 50 and 75 nmoles/ml) of dexamethasone 3H (Amersham 50 Ci/mM) were added to these parts. Three other preparations were carried out under the same conditions, while a saturating quantity of a total […] of the receptors (RU 28362) was added to obtain a non-specific binding of the labeled dexamethasone.
After one night of incubation at 4° C., charcoal/dextran was added to absorb […] dexamethasone. After centrifugation, the radioactivity of the supernatant was measured by liquid scintillation.
The radioactive quantities of the dexamethasone bound to the protein content are recorded. Results are expressed in femtomoles of the labeled corticoid bound to the receptor per mg of proteins.

[2] = tested on: rats given Gp120 (Gp120 model); test: Gp120 model: sound avoidance conditioning (pole climbing test); conditions: for percentage of avoidance, Day 0 / percentage of avoidance, Day 1 / percentage of avoidance, Day 2 / percentage of avoidance, Day 3 / percentage of avoidance, Day 4: Gp120 10 nM/kg/day for 5 days; for percentage of avoidance, Day 0 / percentage of avoidance, Day 1 / percentage of avoidance, Day 2 / percentage of avoidance, Day 3 / percentage of avoidance, Day 4 / AUC (average area under the learning curve per day): treatment 10 mg/kg/day for 5 days; for percentage of avoidance, Day 0: learning Day 0; for percentage of avoidance, Day 1: learning Day 1; for percentage of avoidance, Day 2: learning Day 2; for percentage of avoidance, Day 3: learning Day 3; for percentage of avoidance, Day 4: learning Day 4; for effect on learning parameters (in words) / AUC (average area under the learning curve per day): Gp120 model; for AUC (average area under the learning curve per day): maximum value 100
Excerpt: 40 rats were slightly anesthetized by ether, an incision was made into the skin of the skull, and the skull was pierced by means of a dental burr. A metal needle was stereotaxically directed to the lateral ventricle, and then fixed by means of dental cement. Every day of the experiment, the patency of the needle was controlled.
Three days after introducing the needle (recovery from the postoperative shock) the non-anesthetized animals were divided into 2 groups: • one group of 10 rats to which 5 μl of physiological serum was injected • one group of 30 rats to which 5 μl of physiological serum containing Gp120 in an amount of 10 nM/kg was injected
This administration was repeated every day for a period of five days.
Ten days after the last administration of Gp120, the thirty rats were randomly divided into three groups of 10 animals each: • (i) one group of 10 rats received 1 ml/kg/day of normal saline (controls) for a period of 5 days. • (ii) one group of 10 rats received 10 mg/kg/day of Cinnamoyl-Gly-L-Phe-L-PrONH2 dissolved in normal saline for a period of 5 days. • (iii) one group of 10 rats received 10 mg/kg/day of tacrine peros for a period of 5 days
(§2) During the last five days of treatment, the rats were placed under the common learning conditions of the three models between 10.00 a.m. and 11.00 a.m. (see below).
(§3) During the last five days of treatment, at 10.00 a.m. (1 hour after the administration of Cinnamoyl-Gly-Phe-PrONH2), the animals were placed into a learning cage for sound avoidance conditioning (Conditioning avoidance response). The animals learned to climb a pole first to escape from and then to avoid an electric shock. This method was standardized and quantified. (see Le Poncin M., Lafitte J. C., Rapin J. R., Sound Avoidance Conditioning and a Mathematical approach to the description of acquisition performance, Math. Biosciences 59 (1982) 242-268).
(§4) For a period of five days, the animals were placed everyday under these learning conditions for a total of ten tests a day. Results are expressed as percentage of adequate responses, and the kinetics of the responses is represented by a multi-exponential maximum curve.
(§5) The curve maximum represents the learning capacities. The slope of the curve evaluates the learning speed. The area under the curve (AUC) represents a good evaluation of all conditioning parameters. The maximum value of the area under the curve is 500, if the animals show 100% adequate responses as early as Day 0. In fact, an average area under the curve is calculated per day, what amounts to a maximum value of 100. In the absolute control animals, this average area under the curve is equal to 40+/−4.

[3] = tested on: rats given dexamethasone (dexamethasone model); test: Dexamethasone model: sound avoidance conditioning; conditions: for percentage of avoidance, Day 0 / percentage of avoidance, Day 1 / percentage of avoidance, Day 2 / percentage of avoidance, Day 3 / percentage of avoidance, Day 4: dexamethasone 50 mg/kg/day; for percentage of avoidance, Day 0: learning Day 0; for percentage of avoidance, Day 1: learning Day 1; for percentage of avoidance, Day 2: learning Day 2; for percentage of avoidance, Day 3: learning Day 3; for percentage of avoidance, Day 4: learning Day 4; for effect on learning capacity (in words) / AUC (average area under the learning curve per day): dexamethasone model; for AUC (average area under the learning curve per day): maximum value 100
Protocol: as §1, §2, §3, §4, §5

[4] = tested on: rats given vincristine (vincristine model); test: Vincristine model: sound avoidance conditioning; conditions: for percentage of avoidance, Day 0 / percentage of avoidance, Day 1 / percentage of avoidance, Day 2 / percentage of avoidance, Day 3 / percentage of avoidance, Day 4: vincristine 5 μg/kg/day for 5 days; for percentage of avoidance, Day 0: learning Day 0; for percentage of avoidance, Day 1: learning Day 1; for percentage of avoidance, Day 2: learning Day 2; for percentage of avoidance, Day 3: learning Day 3; for percentage of avoidance, Day 4: learning Day 4; for AUC pro Tag: average area under the learning curve per day, maximum value 100
Protocol: Rats were kept and treated as described above in 3. Then they were divided into the following groups: • one group of 10 rats which received 5 μl/day of physiological serum over a period of 5 days • one group of 30 rats which received 5 μl/day of physiological serum containing 5 μg/kg vincristine over a period of 5 days
A dosage of 5 μg/kg/day causes a 40 to 60% loss of the hippocampal arborization.
After the last administration, the second group of 30 rats was divided at random into three sub-groups and treated as described above in 3.
as §3, §4, §5

hippocampal arborization = test: Vincristine model: loss of the hippocampal arborization; conditions: vincristine 5 μg/kg/day
Protocol: Vincristine is an anticarcinogen that is used as a synchronizing agent. This molecule binds to the spindle of microtubules, thus blocking the cellular multiplication during the metaphase. It is a spindle poison. […] Vincristine binds to these neurofibrils thus causing peripheral neural conduction disorders in patients who are treated for neoplasm. These effects mainly affect the white matter of the axons. […] The repeated ICV administration of vincristine causes a degeneration of the conduction pathways with the appearance of abnormal neurofibrils similar to those observed in Alzheimer's disease. This degeneration mainly affects the periventricular structures. The hippocampi are affected through a decrease of their ramifications, while the cell bodies of the neurons are not altered. […] After this period, a protective layer forms on the glia cells that prevent the diffusion of vincristine from the CSF to the neighboring nerve cells. There is no spontaneously developing Alzheimer's disease in rats that would show the different types of degenerative lesions (beta-amyloid plaques, neurofibrillary and vacuolar degeneration). ICV administration of vincristine, which may cause neurofibrillary degeneration, may be used as a partial animal model of this disease. […]

Structure (SMILES)	Percentage of hippocampal neurons (hippocampal neurons)	Type I receptors in Femtomol/mg protein [1]	effect on number of receptors of hippocampus neurons (in words) [1]	percentage of avoidance, Day 0 [2]	percentage of avoidance, Day 1 [2]	percentage of avoidance, Day 2 [2]	percentage of avoidance, Day 3 [2]	percentage of avoidance, Day 4 [2]	effect on learning parameters (in words) [2]	AUC (average area under the learning curve per day) [2]	percentage of avoidance, Day 0 [3]	percentage of avoidance, Day 1 [3]	percentage of avoidance, Day 2 [3]	percentage of avoidance, Day 3 [3]	percentage of avoidance, Day 4 [3]	effect on learning capacity (in words) [3]	AUC (average area under the learning curve per day) [3]	percentage of avoidance, Day 0 [4]	percentage of avoidance, Day 1 [4]	percentage of avoidance, Day 2 [4]	further results
Nc1c2c(nc3ccccc13)CCCC2 [tacrine]	45 ± 3%	46 ± 5 Femtomol/mg protein	does not show any effect	0%	5 +/− 2%	**18 +/− 2%	**31 +/− 3%	**42 +/− 4%	partly restores the learning parameters	19.4 +/− 2.2	0%	5 +/− 2%	15 +/− 3%	42 +/− 4%	52 +/− 4%	does not show any effect	22.8 +/− 1.3	0%	2 +/− 1%	7 +/− 2%	percentage of avoidance, Day 3 [4]: 19 +/− 2%; percentage of avoidance, Day 4 [4]: 28 +/− 3%; effect on learning capacities (in words) ([4]; vincristine model): does not show an effect; AUC pro Tag ([4]; vincristine model): 11.2 +/− 0.8
CC[C@]1(O)C[C@H]2CN(CCc3c([nH]c4ccccc34)[C@@](C(=O)OC)(c3cc4c(cc3OC)N(C=O)[C@H]3[C@@](O)(C(=O)OC)[C@H](OC(C)=O)[C@]5(CC)C=CCN6CC[C@]43[C@@H]65)C2)C1 [vincristine]																					loss of the hippocampal arborization (hippocampal arborization): 40 to 60%
C[C@@H]1C[C@H]2[C@@H]3CCC4=CC(=O)C=C[C@]4(C)[C@@]3(F)[C@@H](O)C[C@]2(C)[C@@]1(O)C(=O)CO [dexamethasone]																					decrease in the number of corticoide receptors in the hippocampus ([1]; dexamethasone, dosage and treatment time of this experiment): ~60%
NC(=O)[C@@H]1CCCN1C(=O)[C@H](Cc1ccccc1)NC(=O)CNC(=O)C=Cc1ccccc1 [tripeptide derivative, cinnamoyl-glycyl-L-phenylalanyl-L-prolineamide]	*54 ± 3%	**85 ± 9 Femtomol/mg protein	significant increase of the number of receptors	0%	5 +/− 2%	**18 +/− 2%	**32 +/− 2%	**43 +/− 3%	improvement of the learning capacities	**19.6 +/− 1.8	0%	8 +/− 3%	**28 +/− 3%	**68 +/− 3%	**77 +/− 3%	considerably restores the learning capacity	**36.2 +/− 1.2	0%	5 +/− 2%	**20 +/− 2%	effect on learning parameters (in words) ([2]; listed as Cinnamoyl-Gly-Phe-ProNH2): partly restores the learning parameters; percentage of avoidance, Day 3 [4]: **45 +/− 3%; percentage of avoidance, Day 4 [4]: **53 +/− 3%; AUC pro Tag ([4]; vincristine model): **24.6 +/− 1.0
